These results are taken from patent US9192675B2, “Dry powder inhaler and system for drug delivery” (MannKind Corporation, priority 2008, dated 2015).

Molecules are shown by their SMILES.

The data set in a line: Solubility of FDKP as a function of pH. Type of data set: physicochemical. An excerpt:
These properties allow FDKP to crystallize under acidic conditions and the crystals self-assemble to form particles. The particles dissolve readily under physiological conditions where the pH is neutral. As noted, microparticles having a diameter of between about 0.5 and about 10 microns can reach the lungs, successfully passing most of the natural barriers. Particles in this size range can be readily prepared from FDKP.

In the case of `O=C(O)/C=C/C(=O)NCCCCC1NC(=O)C(CCCCNC(=O)/C=C/C(=O)O)NC1=O` (centres unmarked) [FDKP, bis-3,6-(N-fumaryl-4-aminobutyl)-2,5-diketopiperazine], the solubility entry is listed as “low solubility in acid” (in acid) and “readily soluble at neutral or basic pH” (neutral or basic pH).
